# Results: ChEMBL document CHEMBL3885861, “Open TG-GATES”
# Species on record: Rattus norvegicus
# Test: Open TG-GATES - Regimen: Daily Repeat
# Assay type: toxicity, organism-based, Sprague-Dawley
# Set-up: regimen Daily Repeat, gender Male, age 6 weeks
# Conditions: in vivo, po, 50 mg/kg, route gavage, dose level Middle; for APTT / Bas / Eos / Fbg / Hb / Ht / Lym / MCH / MCHC / MCV / Mono / Neu / PT / Plat / RBC / Ret / WBC: tissue Blood; for KIDNEY_L / KIDNEY_R / KIDNEY_TOTAL: tissue Kidney; for LIVER: tissue Liver; for A/G / ALP / ALT / AST / BUN / CRE / Ca / Cl / DBIL / GLC / IP / K / LDH / Na / PL / RALB / TBIL / TC / TG / TP / gamma-GTP: tissue Plasma
smiles,measurement,setting,value
CN(C)CCC=C1c2ccccc2CCc2ccccc21 [AMITRIPTYLINE],TERMINAL_BW,"72 h, time 3 day",221 g
same,APTT,"72 h, time 3 day",16.6 s
same,Bas,"72 h, time 3 day",0.2%
same,Eos,"72 h, time 3 day",1%
same,Fbg,"72 h, time 3 day",279.2 mg/dL
same,Hb,"72 h, time 3 day",13.3 g/dL
same,Ht,"72 h, time 3 day",40%
same,Lym,"72 h, time 3 day",80.2%
same,MCH,"72 h, time 3 day",21 pg
same,MCHC,"72 h, time 3 day",33.3%
same,MCV,"72 h, time 3 day",63.1 fL
same,Mono,"72 h, time 3 day",2.6%
same,Neu,"72 h, time 3 day",15.6%
same,PT,"72 h, time 3 day",16.3 s
same,Plat,"72 h, time 3 day",120.1 x10_4/uL
same,RBC,"72 h, time 3 day",634.6 x10_4/ul
same,Ret,"72 h, time 3 day",6%
same,WBC,"72 h, time 3 day",115.2 x10_2/uL
same,KIDNEY_L,"72 h, time 3 day",0.9 g
same,KIDNEY_R,"72 h, time 3 day",0.9 g
same,KIDNEY_TOTAL,"72 h, time 3 day",1.8 g
same,LIVER,"72 h, time 3 day",10.1 g
same,A/G,"72 h, time 3 day",0.8
same,ALP,"72 h, time 3 day",1628.8 IU/L
same,ALT,"72 h, time 3 day",49.4 IU/L
same,AST,"72 h, time 3 day",67.6 IU/L
same,BUN,"72 h, time 3 day",16 mg/dL
same,CRE,"72 h, time 3 day",0.2 mg/dL
same,Ca,"72 h, time 3 day",10.9 mg/dL
same,Cl,"72 h, time 3 day",105.6 meq/L
same,DBIL,"72 h, time 3 day",0.02 mg/dL
same,GLC,"72 h, time 3 day",180.6 mg/dL
same,IP,"72 h, time 3 day",7.8 mg/dL
same,K,"72 h, time 3 day",4.4 meq/L
same,LDH,"72 h, time 3 day",62.8 IU/L
same,Na,"72 h, time 3 day",143.8 meq/L
same,PL,"72 h, time 3 day",158.4 mg/dL
same,RALB,"72 h, time 3 day",2.6 g/dL
same,TBIL,"72 h, time 3 day",0.048 mg/dL
same,TC,"72 h, time 3 day",87 mg/dL
same,TG,"72 h, time 3 day",98.8 mg/dL
same,TP,"72 h, time 3 day",5.8 g/dL
same,gamma-GTP,"72 h, time 3 day",0.8 IU/L
same,TERMINAL_BW,"[…], time 7 day",255.7 g
same,TERMINAL_BW,"[…], time 14 day",305.2 g
same,TERMINAL_BW,"[…], time 28 day",359.5 g
same,APTT,"[…], time 7 day",15 s
same,Bas,"[…], time 7 day",0.4%
same,Eos,"[…], time 7 day",1%
same,Fbg,"[…], time 7 day",280.6 mg/dL
same,Hb,"[…], time 7 day",13.2 g/dL
same,Ht,"[…], time 7 day",40%
same,Lym,"[…], time 7 day",74.8%
same,MCH,"[…], time 7 day",20.7 pg
same,MCHC,"[…], time 7 day",33%
same,MCV,"[…], time 7 day",62.7 fL
same,Mono,"[…], time 7 day",2.8%
same,Neu,"[…], time 7 day",20.4%
same,PT,"[…], time 7 day",15.5 s
same,Plat,"[…], time 7 day",108.4 x10_4/uL
same,RBC,"[…], time 7 day",638 x10_4/ul
same,Ret,"[…], time 7 day",5.2%
same,WBC,"[…], time 7 day",119.8 x10_2/uL
same,APTT,"[…], time 14 day",16.5 s
same,Bas,"[…], time 14 day",0.2%
same,Eos,"[…], time 14 day",1%
same,Fbg,"[…], time 14 day",299 mg/dL
same,Hb,"[…], time 14 day",14.4 g/dL
same,Ht,"[…], time 14 day",43.2%
same,Lym,"[…], time 14 day",77.2%
same,MCH,"[…], time 14 day",20.2 pg
same,MCHC,"[…], time 14 day",33.4%
same,MCV,"[…], time 14 day",60.5 fL
same,Mono,"[…], time 14 day",2.8%
same,Neu,"[…], time 14 day",18.2%
same,PT,"[…], time 14 day",16.2 s
same,Plat,"[…], time 14 day",111 x10_4/uL
same,RBC,"[…], time 14 day",713.6 x10_4/ul
same,Ret,"[…], time 14 day",4%
same,WBC,"[…], time 14 day",107.8 x10_2/uL
same,APTT,"[…], time 28 day",20.1 s
same,Bas,"[…], time 28 day",0.8%
same,Eos,"[…], time 28 day",0.8%
same,Fbg,"[…], time 28 day",289.6 mg/dL
same,Hb,"[…], time 28 day",15.6 g/dL
same,Ht,"[…], time 28 day",45%
same,Lym,"[…], time 28 day",80.6%
same,MCH,"[…], time 28 day",19.6 pg
same,MCHC,"[…], time 28 day",34.6%
same,MCV,"[…], time 28 day",56.5 fL
same,Mono,"[…], time 28 day",2.4%
same,Neu,"[…], time 28 day",14.8%
same,PT,"[…], time 28 day",16.6 s
same,Plat,"[…], time 28 day",101.5 x10_4/uL
same,RBC,"[…], time 28 day",797.2 x10_4/ul
same,Ret,"[…], time 28 day",2.1%
same,WBC,"[…], time 28 day",134.2 x10_2/uL
same,KIDNEY_L,"[…], time 7 day",1.1 g
same,KIDNEY_R,"[…], time 7 day",1.1 g
same,KIDNEY_TOTAL,"[…], time 7 day",2.1 g
same,KIDNEY_L,"[…], time 14 day",1.2 g
same,KIDNEY_R,"[…], time 14 day",1.2 g
same,KIDNEY_TOTAL,"[…], time 14 day",2.3 g
same,KIDNEY_L,"[…], time 28 day",1.4 g
same,KIDNEY_R,"[…], time 28 day",1.4 g
same,KIDNEY_TOTAL,"[…], time 28 day",2.7 g
same,LIVER,"[…], time 7 day",11.1 g
same,LIVER,"[…], time 14 day",12.6 g
same,LIVER,"[…], time 28 day",14.2 g
same,A/G,"[…], time 7 day",0.8
same,ALP,"[…], time 7 day",1561.4 IU/L
same,ALT,"[…], time 7 day",47.4 IU/L
same,AST,"[…], time 7 day",69 IU/L
same,BUN,"[…], time 7 day",15.8 mg/dL
same,CRE,"[…], time 7 day",0.2 mg/dL
same,Ca,"[…], time 7 day",10.9 mg/dL
same,Cl,"[…], time 7 day",104.6 meq/L
same,DBIL,"[…], time 7 day",0.012 mg/dL
same,GLC,"[…], time 7 day",187 mg/dL
same,IP,"[…], time 7 day",7.3 mg/dL
same,K,"[…], time 7 day",3.8 meq/L
same,LDH,"[…], time 7 day",66.4 IU/L
same,Na,"[…], time 7 day",143.6 meq/L
same,PL,"[…], time 7 day",156.4 mg/dL
same,RALB,"[…], time 7 day",2.6 g/dL
same,TBIL,"[…], time 7 day",0.046 mg/dL
same,TC,"[…], time 7 day",80.4 mg/dL
same,TG,"[…], time 7 day",114 mg/dL
same,TP,"[…], time 7 day",5.8 g/dL
same,gamma-GTP,"[…], time 7 day",1 IU/L
same,A/G,"[…], time 14 day",0.8
same,ALP,"[…], time 14 day",1627.8 IU/L
same,ALT,"[…], time 14 day",43.4 IU/L
same,AST,"[…], time 14 day",69.6 IU/L
same,BUN,"[…], time 14 day",17 mg/dL
same,CRE,"[…], time 14 day",0.2 mg/dL
same,Ca,"[…], time 14 day",11 mg/dL
same,Cl,"[…], time 14 day",105.4 meq/L
same,DBIL,"[…], time 14 day",0.022 mg/dL
same,GLC,"[…], time 14 day",186.6 mg/dL
same,IP,"[…], time 14 day",7.2 mg/dL
same,K,"[…], time 14 day",4 meq/L
same,LDH,"[…], time 14 day",72.6 IU/L
same,Na,"[…], time 14 day",143.6 meq/L
same,PL,"[…], time 14 day",156.2 mg/dL
same,RALB,"[…], time 14 day",2.7 g/dL
same,TBIL,"[…], time 14 day",0.05 mg/dL
same,TC,"[…], time 14 day",77.4 mg/dL
same,TG,"[…], time 14 day",145.2 mg/dL
same,TP,"[…], time 14 day",6 g/dL
same,gamma-GTP,"[…], time 14 day",0.6 IU/L
same,A/G,"[…], time 28 day",0.8
same,ALP,"[…], time 28 day",1098.4 IU/L
same,ALT,"[…], time 28 day",40.8 IU/L
same,AST,"[…], time 28 day",61.8 IU/L
same,BUN,"[…], time 28 day",17.2 mg/dL
same,CRE,"[…], time 28 day",0.2 mg/dL
same,Ca,"[…], time 28 day",10.3 mg/dL
same,Cl,"[…], time 28 day",104.2 meq/L
same,DBIL,"[…], time 28 day",0.018 mg/dL
same,GLC,"[…], time 28 day",186.6 mg/dL
same,IP,"[…], time 28 day",6.3 mg/dL
same,K,"[…], time 28 day",4 meq/L
same,LDH,"[…], time 28 day",62.4 IU/L
same,Na,"[…], time 28 day",141.6 meq/L
same,PL,"[…], time 28 day",139.8 mg/dL
same,RALB,"[…], time 28 day",2.8 g/dL
same,TBIL,"[…], time 28 day",0.058 mg/dL
same,TC,"[…], time 28 day",71.4 mg/dL
same,TG,"[…], time 28 day",108 mg/dL
same,TP,"[…], time 28 day",6.3 g/dL
same,gamma-GTP,"[…], time 28 day",0.6 IU/L
